From ChEMBL document CHEMBL2157907, “Optimization of anti-Trypanosoma cruzi oxadiazoles leads to identification of compounds with efficacy in infected mice” (Bioorg Med Chem, 2012)
pIC50: −log10 of the molar value. Active and inactive are the calls of the source. The calls are words filed in the database; no cut-off is given here.

Tests used:
[1] = Cytotoxicity against BALB/c mouse splenocytes after 24 hrs by [3H]-thymidine incorporation assay; type: cell-based, Splenocyte; conditions: read-out: LC50
[2] = molecular target: Cruzipain (Trypanosoma cruzi) (UniProt P25779); experiment: Inhibition of Trypanosoma cruzi cruzain using Z-Phe-Arg-aminomethylcoumarin as substrate at 100 uM after 10 mins
Sequence of Cruzipain (Trypanosoma cruzi) (P25779 123-467 limits assumed): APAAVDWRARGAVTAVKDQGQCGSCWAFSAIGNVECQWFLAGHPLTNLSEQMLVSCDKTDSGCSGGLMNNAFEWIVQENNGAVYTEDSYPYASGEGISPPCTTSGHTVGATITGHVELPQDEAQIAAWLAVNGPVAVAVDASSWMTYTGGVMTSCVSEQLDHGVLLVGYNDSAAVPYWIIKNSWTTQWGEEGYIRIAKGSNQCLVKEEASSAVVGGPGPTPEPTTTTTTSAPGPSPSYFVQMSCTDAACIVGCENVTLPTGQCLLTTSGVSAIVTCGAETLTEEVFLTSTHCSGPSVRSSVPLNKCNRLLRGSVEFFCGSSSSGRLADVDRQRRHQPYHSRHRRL

Mus musculus [3] = experiment: Toxicity in BALB/c mouse assessed as serum total proteins level at 25 mg/kg, po after 24 hrs; type: organism-based; design: dose 25 mg/kg, route oral; conditions: in vivo
Mus musculus [4] = experiment: Toxicity in BALB/c mouse assessed as serum ALB level at 25 mg/kg, po after 24 hrs; type: organism-based; design: dose 25 mg/kg, route oral; conditions: in vivo
Mus musculus [5] = experiment: Toxicity in BALB/c mouse assessed as serum uric acid level at 25 mg/kg, po after 24 hrs; type: organism-based; design: dose 25 mg/kg, route oral; conditions: in vivo
Mus musculus [6] = experiment: Toxicity in BALB/c mouse assessed as serum Ca2+ level at 25 mg/kg, po after 24 hrs; type: organism-based; design: dose 25 mg/kg, route oral; conditions: in vivo
Mus musculus [7] = experiment: Toxicity in BALB/c mouse assessed as serum cholesterol level at 25 mg/kg, po after 24 hrs; type: organism-based; design: dose 25 mg/kg, route oral; conditions: in vivo
Mus musculus [8] = experiment: Toxicity in BALB/c mouse assessed as serum AML level at 25 mg/kg, po after 24 hrs; type: organism-based; design: dose 25 mg/kg, route oral; conditions: in vivo
Mus musculus [9] = experiment: Toxicity in BALB/c mouse assessed as serum BUN level at 25 mg/kg, po after 24 hrs; type: organism-based; design: dose 25 mg/kg, route oral; conditions: in vivo
Mus musculus [10] = experiment: Toxicity in BALB/c mouse assessed as serum GGT level at 25 mg/kg, po after 24 hrs; type: organism-based; design: dose 25 mg/kg, route oral; conditions: in vivo
Mus musculus [11] = experiment: Toxicity in BALB/c mouse assessed as serum ALT level at 25 mg/kg, po after 24 hrs; type: organism-based; design: dose 25 mg/kg, route oral; conditions: in vivo
Mus musculus [12] = experiment: Toxicity in BALB/c mouse assessed as serum alkaline phosphatase level at 25 mg/kg, po after 24 hrs; type: organism-based; design: dose 25 mg/kg, route oral; conditions: in vivo
Mus musculus [13] = experiment: Toxicity in BALB/c mouse assessed as serum ALB level at 50 mg/kg, po after 24 hrs; type: organism-based; design: dose 50 mg/kg, route oral; conditions: in vivo
Mus musculus [14] = experiment: Toxicity in BALB/c mouse assessed as serum globulin level at 50 mg/kg, po after 24 hrs; type: organism-based; design: dose 50 mg/kg, route oral; conditions: in vivo
Mus musculus [15] = experiment: Toxicity in BALB/c mouse assessed as serum uric acid level at 50 mg/kg, po after 24 hrs; type: organism-based; design: dose 50 mg/kg, route oral; conditions: in vivo
Mus musculus [16] = experiment: Toxicity in BALB/c mouse assessed as serum total proteins level at 50 mg/kg, po after 24 hrs; type: organism-based; design: dose 50 mg/kg, route oral; conditions: in vivo
Mus musculus [17] = experiment: Toxicity in BALB/c mouse assessed as serum Ca2+ level at 50 mg/kg, po after 24 hrs; type: organism-based; design: dose 50 mg/kg, route oral; conditions: in vivo
Mus musculus [18] = experiment: Toxicity in BALB/c mouse assessed as serum cholesterol level at 50 mg/kg, po after 24 hrs; type: organism-based; design: dose 50 mg/kg, route oral; conditions: in vivo
Mus musculus [19] = experiment: Toxicity in BALB/c mouse assessed as serum BUN level at 50 mg/kg, po after 24 hrs; type: organism-based; design: dose 50 mg/kg, route oral; conditions: in vivo
Mus musculus [20] = experiment: Toxicity in BALB/c mouse assessed as serum ALT level at 50 mg/kg, po after 24 hrs; type: organism-based; design: dose 50 mg/kg, route oral; conditions: in vivo
Mus musculus [21] = experiment: Toxicity in BALB/c mouse assessed as serum AML level at 50 mg/kg, po after 24 hrs; type: organism-based; design: dose 50 mg/kg, route oral; conditions: in vivo
Mus musculus [22] = experiment: Toxicity in BALB/c mouse assessed as serum alkaline phosphatase level at 50 mg/kg, po after 24 hrs; type: organism-based; design: dose 50 mg/kg, route oral; conditions: in vivo
Mus musculus [23] = experiment: Toxicity in BALB/c mouse assessed as serum GGT level at 50 mg/kg, po after 24 hrs; type: organism-based; design: dose 50 mg/kg, route oral; conditions: in vivo
Mus musculus [24] = experiment: Toxicity in BALB/c mouse assessed as serum ALB level at 100 mg/kg, po after 24 hrs; type: organism-based; design: dose 100 mg/kg, route oral; conditions: in vivo
Mus musculus [25] = experiment: Toxicity in BALB/c mouse assessed as serum globulin level at 100 mg/kg, po after 24 hrs; type: organism-based; design: dose 100 mg/kg, route oral; conditions: in vivo
Mus musculus [26] = experiment: Toxicity in BALB/c mouse assessed as serum total proteins level at 100 mg/kg, po after 24 hrs; type: organism-based; design: dose 100 mg/kg, route oral; conditions: in vivo
Mus musculus [27] = experiment: Toxicity in BALB/c mouse assessed as serum cholesterol level at 100 mg/kg, po after 24 hrs; type: organism-based; design: dose 100 mg/kg, route oral; conditions: in vivo
Mus musculus [28] = experiment: Toxicity in BALB/c mouse assessed as serum uric acid level at 100 mg/kg, po after 24 hrs; type: organism-based; design: dose 100 mg/kg, route oral; conditions: in vivo
Mus musculus [29] = experiment: Toxicity in BALB/c mouse assessed as serum BUN level at 100 mg/kg, po after 24 hrs; type: organism-based; design: dose 100 mg/kg, route oral; conditions: in vivo
Mus musculus [30] = experiment: Toxicity in BALB/c mouse assessed as serum Ca2+ level at 100 mg/kg, po after 24 hrs; type: organism-based; design: dose 100 mg/kg, route oral; conditions: in vivo
Mus musculus [31] = experiment: Toxicity in BALB/c mouse assessed as serum ALT level at 100 mg/kg, po after 24 hrs; type: organism-based; design: dose 100 mg/kg, route oral; conditions: in vivo
Mus musculus [32] = experiment: Toxicity in BALB/c mouse assessed as serum AML level at 100 mg/kg, po after 24 hrs; type: organism-based; design: dose 100 mg/kg, route oral; conditions: in vivo
Mus musculus [33] = experiment: Toxicity in BALB/c mouse assessed as serum GGT level at 100 mg/kg, po after 24 hrs; type: organism-based; design: dose 100 mg/kg, route oral; conditions: in vivo
Mus musculus [34] = experiment: Toxicity in BALB/c mouse assessed as mortality at 25 to 100 mg/kg, po; type: organism-based; design: dose 25-100 mg/kg, route oral; conditions: in vivo
Mus musculus [35] = experiment: Toxicity in BALB/c mouse assessed as serum alkaline phosphatase level at 100 mg/kg, po after 24 hrs; type: organism-based; design: dose 100 mg/kg, route oral; conditions: in vivo
Trypanosoma cruzi [36] = experiment: Induction of kinetoplast enlargement in trypomastigotes of Trypanosoma cruzi Y at 3.5 uM after 24 hrs by […] electron microscopic analysis; type: functional, organism-based
Trypanosoma cruzi [37] = experiment: Induction of endoplasmic reticulum degeneration in trypomastigotes of Trypanosoma cruzi Y at 3.5 uM after 24 hrs by […] electron microscopic analysis; type: functional, organism-based
Trypanosoma cruzi [38] = experiment: Induction of golgi apparatus degeneration in trypomastigotes of Trypanosoma cruzi Y at 3.5 uM after 24 hrs by […] electron microscopic analysis; type: functional, organism-based
Trypanosoma cruzi [39] = experiment: Induction of mitochondria degeneration in trypomastigotes of Trypanosoma cruzi Y at 3.5 uM after 24 hrs by […] electron microscopic analysis; type: functional, organism-based
Trypanosoma cruzi [40] = experiment: Induction of ultrastructural changes in trypomastigotes of Trypanosoma cruzi Y assessed as plasma membrane protrusions at 10 uM after 24 hrs by scanning electron microscopic analysis; type: functional
Trypanosoma cruzi [41] = experiment: Antitrypanosomal activity against trypomastigotes of Trypanosoma cruzi Y in BALB/c mouse peritoneal exudate macrophages assessed as reduction of parasite infection to cells at 10 ug/ml treated simultaneously with parasite measured after 2 hrs; type: functional, organism-based
Trypanosoma cruzi [42] = experiment: Antitrypanosomal activity against trypomastigotes of Trypanosoma cruzi Y infected in BALB/c mouse peritoneal exudate macrophages assessed as reduction of parasite level at 10 ug/ml after 4 days; type: functional, organism-based
Trypanosoma cruzi [43] = experiment: Antitrypanosomal activity against epimastigotes of Trypanosoma cruzi Y after 5 days; type: functional, organism-based; conditions: 120 h
Trypanosoma cruzi [44] = experiment: Antitrypanosomal activity against trypomastigotes of Trypanosoma cruzi Y infected in rhesus monkey LLC-MK2 cells assessed parasite viability after 24 hrs; type: functional, organism-based; conditions: LLC-MK2, 24 h
[45] = Therapeutic index, ratio of LC50 for BALB/c mouse splenocytes to IC50 for Trypanosoma cruzi Y; conditions: read-out: Ratio LC50/IC50
Trypanosoma cruzi [46] = experiment: Antitrypanosomal activity against trypomastigotes of Trypanosoma cruzi Y infected in BALB/c mouse assessed as reduction of parasite level in blood at 50 mg/kg, po administered after 5 days of postinfection qd for 5 days; type: functional, organism-based; design: dose 50 mg/kg
Mus musculus [47] = experiment: Toxicity in BALB/c mouse assessed as serum globulin level at 25 mg/kg, po after 24 hrs; type: organism-based; design: dose 25 mg/kg, route oral; conditions: in vivo

Work on COc1cc(/C=N/NC(=O)c2nc(-c3ccc(C)cc3)no2)ccc1O yielded a CC50 at 24 h [1] of over 100 µg/mL and an inhibition [2] of 14%.

For COc1cc(/C=N/NC(=O)c2nc(-c3ccc([N+](=O)[O-])cc3)no2)ccc1O, the CC50 at 24 h [1] was over 100 µg/mL and the inhibition [2] was 47%.

O=C(N/N=C/c1ccc2c(c1)OCO2)c1nc(-c2ccc(Cl)cc2)no1 showed an Activity (Mus musculus [3]) of 4.75 g/dL, an Activity (Mus musculus [4]) of 2.35 g/dL and an Activity (Mus musculus [5]) of 1.65 mg/dL. For the same molecule, the Activity (Mus musculus [6]) was 9.45 mg/dL, the Activity (Mus musculus [7]) was 53 mg/dL and the Activity (Mus musculus [8]) was 1183 U/L. It also gave an Activity (Mus musculus [9]) of 17.8 mg/dL, an Activity (Mus musculus [10]) of 1 U/L and an Activity (Mus musculus [11]) of 32.5 U/L. It also gave an Activity (Mus musculus [12]) of 148 U/L, an Activity (Mus musculus [13]) of 2.67 g/dL and an Activity (Mus musculus [14]) of 2.16 g/dL. For the same molecule, the Activity (Mus musculus [15]) was 1.46 mg/dL, the Activity (Mus musculus [16]) was 4.86 g/dL and the Activity (Mus musculus [17]) was 9.45 mg/dL. The Activity (Mus musculus [18]) was 59.5 mg/dL, the Activity (Mus musculus [19]) was 18.07 mg/dL and the Activity (Mus musculus [20]) was 36 U/L. The Activity (Mus musculus [21]) was 1268 U/L, the Activity (Mus musculus [22]) was 142.7 U/L and the Activity (Mus musculus [23]) was 0.67 U/L. For the same molecule, the Activity (Mus musculus [24]) was 2.36 g/dL, the Activity (Mus musculus [25]) was 2.73 g/dL and the Activity (Mus musculus [26]) was 5.1 g/dL. For the same molecule, the Activity (Mus musculus [27]) was 54.5 mg/dL, the Activity (Mus musculus [28]) was 2 mg/dL and the Activity (Mus musculus [29]) was 13.7 mg/dL. For the same molecule, the Activity (Mus musculus [30]) was 9.56 mg/dL, the Activity (Mus musculus [31]) was 29.67 U/L and the Activity (Mus musculus [32]) was 1170 U/L. For the same molecule, the Activity (Mus musculus [33]) was 1 U/L, the Activity (Mus musculus [34]) was “Non-toxic” and the Activity (Mus musculus [35]) was 155.5 U/L. For the same molecule, the Activity (Trypanosoma cruzi [36]) was “Active”, the Activity (Trypanosoma cruzi [37]) was “Active” and the Activity (Trypanosoma cruzi [38]) was “Active”. The Activity (Trypanosoma cruzi [39]) was “Active”, the Activity (Trypanosoma cruzi [40]) was 80% and the Activity (Trypanosoma cruzi [41]) was “Active”. For the same molecule, the CC50 at 24 h [1] was over 100 µg/mL, the Activity (Trypanosoma cruzi [42]) was “Active” and the pIC50 (Trypanosoma cruzi [43]) was 5.12. It also gave a pIC50 (Trypanosoma cruzi [44]) of 5.46, an inhibition [2] of 42% and a selectivity ratio [45] of 50. For the same molecule, the Activity (Trypanosoma cruzi [46]) was “Active” and the Activity (Mus musculus [47]) was 2.4 g/dL.

With CN(C)c1ccc(C(=C2C=CC(=[N+](C)C)C=C2)c2ccc(N(C)C)cc2)cc1 [GENTIAN VIOLET] the CC50 at 24 h [1] was 0.11 µg/mL.

For COc1ccc(-c2noc(C(=O)N/N=C/c3ccc4c(c3)OCO4)n2)cc1, the CC50 at 24 h [1] was over 100 µg/mL and the inhibition [2] was 44%.
